Results published in paper PMC11855827, “High-Throughput Screening of Five Compound Libraries for Anthelmintic Activity and Toxicity Leads to the Discovery of Two Flavonoid Compounds” (International Journal of Molecular Sciences, 2025).
Several values for one entry are separate records, joined by “and”; a condition that tells them apart may be missing. Equal entries are not always repeated. Where two headings read alike, the source gives them in different places.

Tested on: C. elegans
[1] = Table S2, C. elegans SS assay, 110 μM, 0 h, averages of 4 data points
[2] = Table S2, C. elegans SS assay, 110 μM, 24 h, averages of 4 data points

Compound: C[C@H](CC[C@@H](O[C@@H]1O[C@H](CO[C@@H]2O[C@H](CO)[C@@H](O)[C@H](O)[C@H]2O)[C@@H](O)[C@H](O)[C@H]1O[C@@H]1O[C@H](CO)[C@@H](O)[C@H](O)[C@H]1O)C(C)(C)O)[C@H]1CC[C@@]2(C)[C@@H]3CC=C4[C@@H](CC[C@H](O[C@@H]5O[C@H](CO[C@@H]6O[C@H](CO)[C@@H](O)[C@H](O)[C@H]6O)[C@@H](O)[C@H](O)[C@H]5O)C4(C)C)[C@]3(C)C(=O)C[C@]12C [11-oxo-mogroside V]
- Percentage of motility inhibition 0 h [1]: 3%
- Percentage of motility inhibition 24 h [2]: 24%

Compound: COc1c(C(C)C)cc2c(c1O)C1(C(=O)O)CCCC(C)(C)C1CC2 (centres unmarked) [12-O-Methylcarnosic acid]
- Percentage of motility inhibition 0 h [1]: 5%
- Percentage of motility inhibition 24 h [2]: 11%

Compound: C=C1C2CC3(C1O)C1CC4C5(C)CCC(O)C4(C1N(CC)C5)C3CC2O (centres unmarked) [12‐Epinapelline]
- Percentage of motility inhibition 0 h [1]: 0%
- Percentage of motility inhibition 24 h [2]: 9%

Compound: CCc1ccc(O)c2cc3c(nc12)-c1cc2c(c(=O)n1C3)COC(=O)[C@]2(O)CC [12‐Ethyl‐9‐hydroxycamptothecin]
- Percentage of motility inhibition 0 h [1]: 16%
- Percentage of motility inhibition 24 h [2]: 27%

Compound: COc1ccc2c(C)c3[n+](cc2c1OC)CCc1cc2c(cc1-3)OCO2.[Cl-] [13‐Methylberberine (chloride)]
- Percentage of motility inhibition 0 h [1]: 0%
- Percentage of motility inhibition 24 h [2]: 0%

Compound: C=C1CC[C@@H]2[C@](C)(CO)[C@H](O)CC[C@]2(C)[C@@H]1/C=C/C1=CCOC1=O [14-Deoxy-11,12-didehydroandrographolide]
- Percentage of motility inhibition 0 h [1]: 0%
- Percentage of motility inhibition 24 h [2]: 6%

Compound: C/C=C1/CN2[C@H]3Cc4c([nH]c5ccccc45)[C@]2(O)C[C@@H]1[C@@]3(CO)C(=O)OC [16‐Epivoacarpine]
- Percentage of motility inhibition 0 h [1]: 7%
- Percentage of motility inhibition 24 h [2]: 2%

Compound: C/C1=C\[C@@H]2[C@H](C/C=C(/CO)[C@@H](O)[C@@H]3[C@@H](O)[C@@H](C)C[C@]3(O)C1=O)C2(C)C [17-Hydroxyisolathyrol]
- Percentage of motility inhibition 0 h [1]: 13%
- Percentage of motility inhibition 24 h [2]: 29%

Compound: CC1(C)[C@@H](O)CC[C@]2(C)[C@H]3C(=O)C=C4[C@@H]5C[C@@](C)(C(=O)O)CC[C@]5(C)CC[C@@]4(C)[C@]3(C)CC[C@@H]12 [18β-Glycyrrhetinic acid]
- Percentage of motility inhibition 0 h [1]: 15% and 6%

Compound: CC(C)=CCC[C@@](C)(O)[C@H]1CC[C@]2(C)[C@@H]1[C@H](O)C[C@@H]1[C@@]3(C)CC[C@H](O)C(C)(C)[C@@H]3[C@@H](O[C@@H]3O[C@H](CO)[C@@H](O)[C@H](O)[C@H]3O[C@@H]3O[C@@H](C)[C@H](O)[C@@H](O)[C@H]3O)C[C@]12C [20(R)-Ginsenoside Rg2]
- Percentage of motility inhibition 0 h [1]: 0%
- Percentage of motility inhibition 24 h [2]: 8%

Compound: CC(C)=CCC[C@@](C)(O)[C@H]1CC[C@]2(C)[C@@H]1[C@H](O)C[C@@H]1[C@@]3(C)CC[C@H](O[C@@H]4O[C@H](CO)[C@@H](O)[C@H](O)[C@H]4O)C(C)(C)[C@@H]3CC[C@]12C [20(R)-Ginsenoside Rh2]
- Percentage of motility inhibition 0 h [1]: 11%
- Percentage of motility inhibition 24 h [2]: 6%

Compound: CC(C)=CCC[C@@](C)(O)[C@H]1CC[C@]2(C)[C@@H]1[C@H](O)C[C@@H]1[C@@]3(C)CC[C@H](O)C(C)(C)[C@@H]3[C@@H](O)C[C@]12C [20(R)-Protopanaxatriol]
- Percentage of motility inhibition 0 h [1]: 0%
- Percentage of motility inhibition 24 h [2]: 21%

Compound: CC(C)=CCC[C@](C)(O)[C@H]1CC[C@]2(C)[C@@H]1[C@H](O)C[C@@H]1[C@@]3(C)CC[C@H](O[C@@H]4O[C@H](CO)[C@@H](O)[C@H](O)[C@H]4O[C@@H]4O[C@H](CO)[C@@H](O)[C@H](O)[C@H]4O)C(C)(C)[C@@H]3CC[C@]12C [20(S)-Ginsenoside Rg3]
- Percentage of motility inhibition 0 h [1]: 0%
- Percentage of motility inhibition 24 h [2]: 0%

Compound: CC1=C[C@@H]2C(=O)[C@]3(C=C(C)[C@H](O)[C@@]3(O)[C@@H]1O)[C@H](C)C[C@@H]1[C@H]2C1(C)C [20-Deoxyingenol]
- Percentage of motility inhibition 0 h [1]: 0%
- Percentage of motility inhibition 24 h [2]: 21%

Compound: C=C(C)[C@@H]1CC[C@]2(C(=O)O)CC[C@]3(C)[C@H](CC[C@@H]4[C@@]5(C)CC[C@H](O)[C@@](C)(CO)[C@@H]5CC[C@]43C)[C@@H]12 [23-Hydroxybetulinic acid]
- Percentage of motility inhibition 0 h [1]: 13%
- Percentage of motility inhibition 24 h [2]: 5%

Compound: CC(=O)O[C@@H]1C[C@@]23C[C@@]24CC[C@H](O[C@@H]2OC[C@@H](O)[C@H](O)[C@H]2O)C(C)(C)[C@@H]4CC[C@H]3[C@]2(C)C[C@@H]3O[C@@]4(C[C@@H](C)[C@@H]3[C@@]12C)OC[C@@]1(C)O[C@@H]41 [23-epi-26-Deoxyactein]
- Percentage of motility inhibition 0 h [1]: 0%
- Percentage of motility inhibition 24 h [2]: 5%

Compound: CC(C)CCC[C@@H](C)[C@H]1CC[C@@]2(C)C3=C(CC[C@]12C)[C@@]1(C)CC[C@H](O)C(C)(C)[C@@H]1CC3 [24,25-Dihydrolanosterol]
- Percentage of motility inhibition 0 h [1]: 3%
- Percentage of motility inhibition 24 h [2]: 4%

Compound: C=C(CC[C@@H](C)[C@H]1CC[C@@]2(C)[C@@H]3CC[C@H]4C(C)(C)[C@@H](OC(=O)/C=C/c5ccc(O)c(OC)c5)CC[C@@]45C[C@@]35CC[C@]12C)C(C)C [24-Methylenecycloartanyl ferulate]
- Percentage of motility inhibition 0 h (110 µM): 0%
- Percentage of motility inhibition 24 h (110 µM): 11%

Compound: CC(C)=CCc1c(O)cc2c(c1O)C(=O)C[C@@H](c1ccc(O)cc1)O2 [(2S)‐6‐Prenylnaringenin]
- Percentage of motility inhibition 0 h [1]: 0%
- Percentage of motility inhibition 24 h [2]: 0%

Compound: COc1cc(O)c(CC=C(C)C)c2c1C(=O)C[C@@H](c1ccc(O)cc1)O2 [(2S)‐Isoxanthohumol]
- Percentage of motility inhibition 0 h [1]: 0%
- Percentage of motility inhibition 24 h [2]: 2%

Compound: CC(C)=CCC[C@@](C)(O)[C@H]1CC[C@]2(C)[C@@H]1[C@H](O)C[C@@H]1[C@@]3(C)CC[C@H](O[C@@H]4O[C@H](CO)[C@@H](O)[C@H](O)[C@H]4O[C@@H]4O[C@H](CO)[C@@H](O)[C@H](O)[C@H]4O)C(C)(C)[C@@H]3CC[C@]12C [(20R)-Ginsenoside Rg3]
- Percentage of motility inhibition 0 h [1]: 22%
- Percentage of motility inhibition 24 h [2]: 15%

Compound: CC(C)=CCC[C@@](C)(O)[C@H]1CC[C@]2(C)[C@@H]1[C@H](O)C[C@@H]1[C@@]3(C)CC[C@H](O)C(C)(C)[C@@H]3[C@@H](O[C@@H]3O[C@H](CO)[C@@H](O)[C@H](O)[C@H]3O)C[C@]12C [(20R)-Ginsenoside Rh1]
- Percentage of motility inhibition 0 h [1]: 13%
- Percentage of motility inhibition 24 h [2]: 5%

Compound: CC(C)=CCC[C@@](C)(O)[C@H]1CC[C@]2(C)[C@@H]1[C@H](O)C[C@@H]1[C@@]3(C)CC[C@H](O)C(C)(C)[C@@H]3CC[C@]12C [(20R)-Protopanaxadiol]
- Percentage of motility inhibition 0 h [1]: 0%
- Percentage of motility inhibition 24 h [2]: 43%

Compound: CC(C)=CCC[C@](C)(O)[C@H]1CC[C@]2(C)[C@@H]1[C@H](O)C[C@@H]1[C@@]3(C)CC[C@H](O)C(C)(C)[C@@H]3CC[C@]12C [(20S)-Protopanaxadiol]
- Percentage of motility inhibition 0 h [1]: 21%
- Percentage of motility inhibition 24 h [2]: 10%

Compound: CC(C)=CCC[C@](C)(O)[C@H]1CC[C@]2(C)[C@@H]1[C@H](O)C[C@@H]1[C@@]3(C)CC[C@H](O)C(C)(C)[C@@H]3[C@@H](O)C[C@]12C [(20S)-Protopanaxatriol]
- Percentage of motility inhibition 0 h [1]: 31%
- Percentage of motility inhibition 24 h [2]: 32%

Compound: CC12CCC(CC1=O)C2(C)C (stereo not drawn) [(+)-Camphor]
- Percentage of motility inhibition 0 h [1]: 2% and 0%
- Percentage of motility inhibition 24 h [2]: 5% and 0%

Compound: C=C1[C@H]2CC[C@@H]3[C@H]2C(C)(C)CCC[C@]13C [(+)-Longifolene]
- Percentage of motility inhibition 0 h [1]: 3%
- Percentage of motility inhibition 24 h [2]: 1%
